Measured values: ChEMBL document CHEMBL4130472, “Synthesis of naphthazarin derivatives and identification of novel thioredoxin reductase inhibitor as potential anticancer agent” (Eur J Med Chem, 2017)
Changes are numbered by the printed parent chain. Activity calls are given as the source filed them. The calls are words filed in the database; no cut-off is given here.

Tests used:
HL-60 [1] = assay: Cytotoxicity in human HL60 cells assessed as cell viability at 20 uM incubated for 48 hrs by MTT assay; assay type: functional; conditions: HL-60, 48 h, read-out: Activity
[2] = biological target: T1, Thioredoxin reductase 1, cytoplasmic (Homo sapiens, UniProt Q16881); assay: Inhibition of TrxR1 in human HL60 cells incubated for 24 hrs by endpoint insulin reduction assay; assay type: cell-based
T1 sequence (Q16881 whole entry): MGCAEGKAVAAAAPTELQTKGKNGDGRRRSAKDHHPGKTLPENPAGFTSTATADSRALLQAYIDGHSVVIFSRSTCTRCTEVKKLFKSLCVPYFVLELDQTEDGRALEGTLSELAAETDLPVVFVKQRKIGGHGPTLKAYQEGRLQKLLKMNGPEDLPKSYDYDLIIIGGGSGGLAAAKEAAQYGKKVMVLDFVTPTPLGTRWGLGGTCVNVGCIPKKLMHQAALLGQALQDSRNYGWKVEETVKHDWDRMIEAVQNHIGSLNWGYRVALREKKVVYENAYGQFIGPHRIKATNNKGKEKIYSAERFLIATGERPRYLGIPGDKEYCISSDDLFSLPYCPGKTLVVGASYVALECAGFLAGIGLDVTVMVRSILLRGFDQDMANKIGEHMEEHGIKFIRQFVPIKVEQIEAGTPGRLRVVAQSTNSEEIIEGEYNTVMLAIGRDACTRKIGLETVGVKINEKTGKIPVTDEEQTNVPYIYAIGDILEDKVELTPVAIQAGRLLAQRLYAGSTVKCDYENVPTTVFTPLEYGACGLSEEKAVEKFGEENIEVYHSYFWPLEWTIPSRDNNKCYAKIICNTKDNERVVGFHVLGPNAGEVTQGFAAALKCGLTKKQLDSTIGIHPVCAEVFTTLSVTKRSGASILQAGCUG

[3] = biological target: T2, Glutathione reductase (Rattus norvegicus) (UniProt P70619); assay: Inhibition of NADPH-reduced rat glutathione reductase at 1 to 5 uM incubated for 1 hr in presence of NADPH and GSSG
T2 sequence (whole entry): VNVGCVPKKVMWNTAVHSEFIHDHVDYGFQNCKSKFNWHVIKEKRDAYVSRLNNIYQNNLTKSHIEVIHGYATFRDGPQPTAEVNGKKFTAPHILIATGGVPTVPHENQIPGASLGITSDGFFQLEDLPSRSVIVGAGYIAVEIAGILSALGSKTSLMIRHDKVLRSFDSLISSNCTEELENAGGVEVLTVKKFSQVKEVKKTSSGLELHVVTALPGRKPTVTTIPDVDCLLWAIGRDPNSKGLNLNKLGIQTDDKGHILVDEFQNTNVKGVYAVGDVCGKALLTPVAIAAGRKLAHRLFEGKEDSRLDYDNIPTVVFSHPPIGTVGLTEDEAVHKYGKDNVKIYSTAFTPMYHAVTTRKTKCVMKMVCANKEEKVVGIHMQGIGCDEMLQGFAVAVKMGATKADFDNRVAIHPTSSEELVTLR

HL-60 [4] = assay: Potentiation of H2O2-induced cytotoxicity in human HL60 cells assessed as induction of cell death at 3 uM incubated for 24 hrs by MTT assay; assay type: functional, cell-based
HL-60 [5] = assay: Induction of ROS production in human HL60 cells at 1 to 5 uM incubated for 1 hr by DHE staining based fluorescence assay; assay type: functional, cell-based
HEK-293T [6] = assay: Cytotoxicity in human HEK293T cells assessed as reduction in cell viability at 1 to 5 uM incubated for 48 hrs by MTT assay; assay type: cell-based
A549 = assay: Cytotoxicity in human A549 cells assessed as reduction in cell viability at 1 to 5 uM incubated for 48 hrs by MTT assay; assay type: functional, cell-based
HL-60 [7] = assay: Induction of apoptosis in human HL60 cells assessed as increase in caspase-3 activity at 5 uM incubated for 24 hrs using Ac-DEVD-pNA substrate by colorimetric assay; assay type: functional, cell-based
HL-60 [8] = assay: Induction of apoptosis in human HL60 cells assessed as increase in condensed and fluorescent nuclei at 1 to 5 uM incubated for 24 hrs by Hoechst 33342 staining based phase contrast and fluorescence microscopy; assay type: functional, cell-based
HL-60 [9] = assay: Reduction in intracellular thiols in human HL60 cells at 1 to 5 uM incubated for 24 hrs by DTNB titration method; assay type: functional, cell-based
HL-60 [10] = assay: Potentiation of H2O2-induced cytotoxicity in human HL60 cells assessed as induction of cell death at 1 uM incubated for 24 hrs by MTT assay (reference value: 4%); assay type: functional
HL-60 [11] = assay: Induction of apoptosis in human HL60 cells 3 uM incubated for 24 hrs by Annexin V/propidium iodide staining based flow cytometry; assay type: functional
HL-60 [12] = assay: Cytotoxicity in human HL60 cells assessed as cell viability at 1 to 5 uM incubated for 24 hrs by MTT assay; assay type: functional, cell-based
HL-60 [13] = assay: Induction of ROS production in human HL60 cells at 1 to 5 uM incubated for 1 hr by DCFH-DA staining based fluorescence assay; assay type: functional, cell-based
HL-60 [14] = assay: Cytotoxicity in human HL60 cells assessed as induction of cell death at 1 uM incubated for 24 hrs by MTT assay; assay type: functional
HL-60 [15] = assay: Cytotoxicity in human HL60 cells assessed as reduction in cell viability incubated for 48 hrs by MTT assay; assay type: functional, cell-based; conditions: HL-60, 48 h
HeLa [16] = assay: Cytotoxicity in human HeLa cells transfected with shTrxR1 assessed as reduction in cell viability at 1 to 5 uM incubated for 48 hrs by MTT assay; assay type: functional, cell-based
HepG2 = assay: Cytotoxicity in human HepG2 cells assessed as reduction in cell viability at 1 to 5 uM incubated for 48 hrs by MTT assay; assay type: functional, cell-based
HL-60 [17] = assay: Cytotoxicity in human HL60 cells assessed as cell viability at 1 to 5 uM incubated for 48 hrs after 24 hrs pre-treatment with 50 uM BSO before compound addition by MTT assay; assay type: functional, cell-based
HeLa [18] = assay: Cytotoxicity in human HeLa cells transfected with non targetting vector assessed as reduction in cell viability at 1 to 5 uM incubated for 48 hrs by MTT assay; assay type: functional, cell-based
HL-60 [19] = assay: Cytotoxicity in human HL60 cells assessed as reduction in cell viability incubated for 48 hrs by trypan blue dye exclusion assay; assay type: functional, cell-based; conditions: HL-60, 48 h
[20] = tested on: T3, Thioredoxin reductase 1, cytoplasmic (Rattus norvegicus), O89049 [U498C]; assay: Inhibition of NADPH-reduced rat TrxR1 U498C mutant assessed as suppression of DTNB reduction at 1 to 5 uM incubated for 1 hr
T3 sequence (whole entry): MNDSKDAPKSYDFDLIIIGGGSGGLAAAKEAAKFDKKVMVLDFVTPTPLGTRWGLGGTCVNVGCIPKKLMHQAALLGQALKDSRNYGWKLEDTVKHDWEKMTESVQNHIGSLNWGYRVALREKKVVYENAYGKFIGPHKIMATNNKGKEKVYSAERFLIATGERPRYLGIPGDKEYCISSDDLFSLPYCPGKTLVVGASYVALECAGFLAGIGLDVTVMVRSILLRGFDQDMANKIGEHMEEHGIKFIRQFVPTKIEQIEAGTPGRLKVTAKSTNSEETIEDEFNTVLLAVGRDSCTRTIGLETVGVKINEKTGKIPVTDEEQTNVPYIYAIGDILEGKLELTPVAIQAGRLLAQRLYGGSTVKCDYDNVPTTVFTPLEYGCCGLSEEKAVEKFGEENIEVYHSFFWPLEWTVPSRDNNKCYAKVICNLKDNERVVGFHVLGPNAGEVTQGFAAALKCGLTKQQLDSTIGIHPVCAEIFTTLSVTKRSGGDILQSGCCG

HL-60 [21] = assay: Reduction in GSH/GSSG ratio in human HL60 cells at 1 to 5 uM incubated for 24 hrs by enzymatic recycling method; assay type: functional, cell-based
HL-60 [22] = assay: Induction of apoptosis in human HL60 cells 5 uM incubated for 24 hrs by Annexin V/propidium iodide staining based flow cytometry; assay type: functional
HL-60 [23] = assay: Effect on TrxR1 protein expression in human HL60 cells at 1 to 5 uM incubated for 24 hrs by Western blot; assay type: ADME, cell-based; conditions: hl-60, 24 h
[24] = biological target: T4, Thioredoxin reductase 1, cytoplasmic (Rattus norvegicus) (UniProt O89049); assay: (§1) Inhibition of NADPH-reduced rat TrxR1 assessed as suppression of DTNB reduction incubated for 1 hr
T4 sequence (whole entry): T3 sequence (whole entry) with C498U

[25] = biological target: T5, Thioredoxin reductase 1, cytoplasmic (Rattus norvegicus, UniProt O89049); assay: as §1
T5 sequence (O89049 whole entry): T3 sequence (whole entry) with C498U

HEK-293T [26] = assay: Cytotoxicity in HEK293T cells overexpressing TrxR1 (unknown origin) cells assessed as reduction in cell viability at 1 to 5 uM incubated for 48 hrs by MTT assay; assay type: functional, cell-based; conditions: Homo sapiens
HL-60 [27] = assay: Induction of apoptosis in human HL60 cells 1 uM incubated for 24 hrs by Annexin V/propidium iodide staining based flow cytometry; assay type: functional
HL-60 [28] = assay: Induction of apoptosis in human HL60 cells 0.5 to 5 uM incubated for 24 hrs in presence of NAC by Annexin V/propidium iodide staining based flow cytometry; assay type: functional, cell-based
HL-60 [29] = assay: Induction of apoptosis in human HL60 cells assessed as increase in caspase-3 activity at 1 to 3 uM incubated for 24 hrs using Ac-DEVD-pNA substrate by colorimetric assay; assay type: functional, cell-based
L02 = assay: Cytotoxicity in human L02 cells assessed as reduction in cell viability at 1 to 5 uM incubated for 48 hrs by MTT assay; assay type: cell-based; conditions: l02, 48 h
[30] = biological target: T6, Thioredoxin reductase 1, cytoplasmic (Homo sapiens) (UniProt Q16881); assay: Inhibition of TrxR1 in human HL60 cells incubated for 12 hrs by TRFS-green dye based fluorescence assay; assay type: cell-based
T6 sequence (whole entry): T1 sequence (Q16881 whole entry)

HL-60 [31] = assay: Cytotoxicity in human HL60 cells assessed as cell viability at 1 to 5 uM incubated for 24 hrs after pre-treatment with […] before compound addition by MTT assay; assay type: functional, cell-based
HEK-293T [32] = assay: Cytotoxicity in HEK293T cells transfected with pIRESneo construct assessed as reduction in cell viability at 1 to 5 uM incubated for 48 hrs by MTT assay; assay type: functional, cell-based; conditions: Homo sapiens
HL-60 [33] = assay: Induction of necrosis in human HL60 cells 5 uM incubated for 24 hrs by Annexin V/propidium iodide staining based flow cytometry; assay type: functional, cell-based
HeLa [34] = assay: Cytotoxicity in human HeLa cells assessed as reduction in cell viability at 1 to 5 uM incubated for 48 hrs by MTT assay; assay type: functional, cell-based
HL-60 [35] = assay: Induction of apoptosis in human HL60 cells 0.5 uM incubated for 24 hrs by Annexin V/propidium iodide staining based flow cytometry; assay type: functional
HL-60 [36] = assay: Cytotoxicity in human HL60 cells assessed as reduction in cell viability incubated for 72 hrs by MTT assay; assay type: functional, cell-based; conditions: HL-60, 72 h
[37] = biological target: T4, Thioredoxin reductase 1, cytoplasmic (Rattus norvegicus); assay: Irreversible inhibition of NADPH-reduced rat TrxR1 assessed as suppression of DTNB reduction incubated for 1 hr followed by compound removal from incubation mixture by column desalting

SMILES: O=C1C=C(Nc2ccccc2)C(=O)c2c(O)ccc(O)c21
- viability at 20 µM (HL-60 [1]): 59.7%

SMILES: CCNC1=CC(=O)c2c(O)ccc(O)c2C1=O
- viability at 20 µM (HL-60 [1]): 56.4%

SMILES: O=C1C=C(NCc2ccccc2)C(=O)c2c(O)ccc(O)c21
- viability at 20 µM (HL-60 [1]): 54.6%

SMILES: O=C1C=C(NCCO)C(=O)c2c(O)ccc(O)c21
- viability at 20 µM (HL-60 [1]): 50.3%

SMILES: CC1=CC(=O)c2c(O)ccc(O)c2C1=O
- IC50 [2]: 2400 nM
- inhibition [3]: inactive
- Activity (HL-60 [4]): Active
- Activity (HL-60 [5]): Dose-dependent effect
- Activity (HEK-293T [6]): Non-Toxic
- Activity (A549): Active
- Activity (HL-60 [7]): inactive
- Activity (HL-60 [8]): Active
- Activity (HL-60 [9]): Active
- Activity (HL-60 [10]): >43%
- viability at 20 µM (HL-60 [1]): 0%
- Activity (HL-60 [11]): 42%
- Activity (HL-60 [12]): Active
- Activity (HL-60 [13]): Active
- Activity (HL-60 [14]): 27%
- IC50 (HL-60 [15]): 720 nM
- Activity (HeLa [16]): Active
- Activity (HepG2): Active
- Activity (HL-60 [17]): Active
- Activity (HeLa [18]): Active
- IC50 (HL-60 [19]): 860 nM
- inhibition [20]: inactive
- Activity (HL-60 [21]): Dose-dependent effect
- Activity (HL-60 [22]): 56%
- Activity (HL-60 [23]): Non-Toxic
- inhibition [24]: Dose-dependent effect
- IC50 [25]: 700 nM
- Activity (HEK-293T [26]): inactive
- Activity (HL-60 [27]): 23%
- Activity (HL-60 [28]): inactive
- Activity (HL-60 [29]): Active
- Activity (L02): Non-Toxic
- inhibition [30]: Dose-dependent effect
- Activity (HL-60 [31]): inactive
- Activity (HEK-293T [32]): Active
- Activity (HL-60 [33]): Active
- Activity (HeLa [34]): Active
- Activity (HL-60 [35]): 10%
- IC50 (HL-60 [36]): 640 nM
- inhibition [37]: Active

SMILES: CNC1=CC(=O)c2c(O)ccc(O)c2C1=O
- viability at 20 µM (HL-60 [1]): 63%

SMILES: O=C1C=C(N2CCOCC2)C(=O)c2c(O)ccc(O)c21
- viability at 20 µM (HL-60 [1]): 50.1%

SMILES: CCC(C)NC1=CC(=O)c2c(O)ccc(O)c2C1=O (configuration not stated)
- viability at 20 µM (HL-60 [1]): 57%
